The numbers were not newly measured in patent CN102406622A, “一种托伐普坦的固体制剂” (Zhejiang Huahai Pharmaceutical Co Ltd, priority 2011, dated 2012), which cites them from elsewhere.

For the data set the following is noted: low solubility, low permeability.

Take `Cc1ccccc1C(=O)Nc1ccc(C(=O)N2CCC[C@@H](O)c3cc(Cl)ccc32)c(C)c1` [托伐普坦, N-[4-[(5R)-7-氯-5-羟基-2,3,4,5-四氢-1-苯并氮杂卓-1-甲酰基]-3-甲基苯基]-2-甲基苯甲酰胺]: the BCS class result was “IV类药”.
